ChEMBL document CHEMBL1201862, “PubChem BioAssay data set” (2004)
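Interpolation was linear, between the two tested concentrations surrounding the appropriate level; five concentrations were tested over 48 hours in 96-well plates. GI50: concentration for 50% inhibition of growth.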 The source made the active and inactive calls. Cut-off read from the data, not from the text of the source: active = GI50 up to about 1.1 µM and inactive = higher.

Key:
Test in all cases: NCI anticancer screen, dose series, 48 h
[1] = test system: Hs-578T
[2] = test system: SNB-19
[3] = test system: Malme-3M
[4] = test system: IGROV-1
[5] = test system: UO-31
[6] = test system: RXF 393
[7] = test system: OVCAR-8
[8] = test system: HCT-15
[9] = test system: SK-MEL-5
[10] = test system: SF-268
[11] = test system: MDA-MB-231
[12] = test system: OVCAR-4
[13] = test system: BT-549
[14] = test system: ACHN
[15] = test system: K562
[16] = test system: U-251
[17] = test system: NCI/ADR-RES
[18] = test system: NCI-H460
[19] = test system: SK-OV-3
[20] = test system: HOP-62
[21] = test system: OVCAR-5
[22] = test system: PC-3
[23] = test system: TK-10
[24] = test system: NCI-H522
[25] = test system: SF-295
[26] = test system: 786-0
[27] = test system: SR
[28] = test system: COLO 205
[29] = test system: HOP-92
[30] = test system: SK-MEL-28
[31] = test system: LOX IMVI
[32] = test system: UACC-257
[33] = test system: M14
[34] = test system: HCT-116
[35] = test system: MCF7
[36] = test system: SNB-75
[37] = test system: NCI-H23
[38] = test system: DU-145
[39] = test system: CCRF-CEM
[40] = test system: RPMI-8226
[41] = test system: UACC-62
[42] = test system: A549
[43] = test system: KM12
[44] = test system: MOLT-4
[45] = test system: SW-620
[46] = test system: SN12C
[47] = test system: HL-60
[48] = test system: T47D
[49] = test system: SF-539
[50] = test system: HT-29
[51] = test system: SK-MEL-2
[52] = test system: CAKI-1
[53] = test system: OVCAR-3
[54] = test system: EKVX
[55] = test system: MDA-MB-435
[56] = test system: NCI-H226

Measured: GI50

Cc1ccc(S(=O)(=O)NC(=O)NC(Cc2ccccc2)C(=O)O)cc1 (stereo not given)
inactive: [1] > 100 µM | [2] > 100 µM | [3] > 100 µM | [4] > 100 µM | [5] > 100 µM | [6] > 100 µM | [7] > 100 µM | [9] > 100 µM | [10] > 100 µM | [11] > 100 µM | [12] > 100 µM | [13] > 100 µM | [14] > 100 µM | [15] > 100 µM | [16] > 100 µM | [17] > 100 µM | [18] > 100 µM | [19] > 100 µM | [20] > 100 µM | [21] > 100 µM | [22] > 100 µM | [23] > 100 µM | [24] > 100 µM | [25] > 100 µM | [26] > 100 µM | [27] > 100 µM | [28] > 100 µM | [29] > 100 µM | [30] > 100 µM | [31] > 100 µM | [32] > 100 µM | [33] > 100 µM | [34] > 100 µM | [35] > 100 µM | [36] > 100 µM | [37] > 100 µM | [38] > 100 µM | [39] > 100 µM | [40] > 100 µM | [41] > 100 µM | [42] > 100 µM | [43] > 100 µM | [44] > 100 µM | [45] > 100 µM | [46] > 100 µM | [47] > 100 µM | [48] > 100 µM | [49] > 100 µM | [50] > 100 µM | [51] > 100 µM
> 100 µM: [8]

CCOC(=O)N1C=CC(=C2C(=C3C=CN(C(=O)OCC)C=C3)C(=C3C=CN(C(=O)OCC)C=C3)C2=C2C=CN(C(=O)OCC)C=C2)C=C1
inactive: [1] 16 µM | [2] 64.6 µM | [3] 13.5 µM | [4] 16.1 µM | [5] 12.9 µM | [6] 51.5 µM | [7] 27.1 µM | [9] 26.5 µM | [10] 31.5 µM | [52] 16.7 µM | [11] 10.4 µM | [12] 38 µM | [53] 22.4 µM | [13] 40.5 µM | [14] 2.98 µM | [15] 23.8 µM | [16] 13.7 µM | [17] 22.4 µM | [18] 22.9 µM | [19] 44 µM | [54] 48.5 µM | [20] 25.9 µM | [21] 36.8 µM | [22] 17.1 µM | [23] 26 µM | [24] 19.1 µM | [25] 21.8 µM | [26] 28.6 µM | [27] 6.24 µM | [28] 23.1 µM | [30] 27.5 µM | [31] 12.2 µM | [55] 22.2 µM | [32] 34.1 µM | [33] 28.3 µM | [34] 11.1 µM | [35] 35.6 µM | [36] 47.1 µM | [37] 26.2 µM | [38] 35.3 µM | [41] 16.9 µM | [42] 24.4 µM | [43] 22.1 µM | [44] 16.9 µM | [45] 17 µM | [46] 20.2 µM | [47] 33 µM | [48] 36.5 µM | [49] 25 µM | [50] 22.2 µM | [56] 22.3 µM | [51] 26.8 µM
12.4 µM: [8]
active: [29] 0.0637 µM

COc1ccc(CNc2nc(NC3CCCCC3)nc(NC3CCCCC3)n2)cc1
inactive: [1] 7.29 µM | [2] > 100 µM | [3] 9.25 µM | [4] 4.76 µM | [5] 3.57 µM | [6] 3.09 µM | [7] 15.4 µM | [9] 3.56 µM | [10] 6.46 µM | [52] 5.14 µM | [11] 3.44 µM | [12] 4.02 µM | [53] 11.3 µM | [13] 8.53 µM | [14] 5.35 µM | [15] 5.08 µM | [16] 4.06 µM | [17] 4.24 µM | [18] 3.44 µM | [19] > 100 µM | [54] 4.78 µM | [20] 8.18 µM | [21] 4.06 µM | [22] 5.15 µM | [23] 10 µM | [24] 4.31 µM | [25] 9.66 µM | [26] 5.71 µM | [28] 3.62 µM | [29] 8.75 µM | [30] 20.6 µM | [31] 1.79 µM | [55] 21.8 µM | [32] 13.9 µM | [33] 4.42 µM | [34] 2.85 µM | [35] 3.78 µM | [36] 8.81 µM | [37] 2.4 µM | [38] 5.6 µM | [39] 4.63 µM | [40] 2.66 µM | [41] 6.46 µM | [42] 5.38 µM | [43] 1.21 µM | [44] 4.25 µM | [45] 4.19 µM | [46] 6.53 µM | [47] 4.88 µM | [48] 3.41 µM | [49] 8.28 µM | [50] 2.61 µM | [56] 2.99 µM | [51] 11.4 µM
2.13 µM: [8]
